From patent US6211170A, “Azetidinone derivatives for the treatment of HCMV infections” (Boehringer Ingelheim (Canada) Ltd., priority 1998, dated 2001)

What was measured:
[1] = tested on: HCMV (strain AD169, ATCC VR-538); experiment: Plaque Reduction Assay (PRA) in HCMV-infected Hs-68 cells; assay type: cell-based, human cytomegalovirus (HCMV); conditions: Human betaherpesvirus 5, Hs68, 192 h; plaque reduction, HCMV strain AD169, Hs-68 cells, 8 days; read-out: EC50
Description: B. Plaque Reduction Assay (PRA):
Hs-68 cells (ATCC # CRL 1635) were seeded in 12-well plates at 83,000 cells/well in 1 mL of DMEM medium (Gibco Canada Inc.) supplemented with 10% fetal bovine serum (FBS, Gibco Canada Inc.). The plates were incubated for 3 days at 37° to allow the cells to reach 80-90% confluency prior to the assay.
The medium was removed from the cells by aspiration. The cells were then infected with approximately 50 PFU of HCMV (strain AD169, ATCC VR-538) in DMEM medium supplemented with 5% inactivated FBS (assay medium). (DMEM medium is commercially available and has been described by R. Dulbecco et al., Virology 1959, 8, 396.) The virus was allowed to adsorb to cells for 2 h at 37°. Following viral adsorption, the medium was removed from the wells by aspiration. The cells were then incubated with or without 1 mL of appropriate concentrations of test reagent in assay medium. Occasionally, test compounds were added 24 h post-infection. After 4 days of incubation at 37°, the medium was exchanged with fresh medium containing test compound and 4 days later the cells were fixed with 1% aqueous formaldehyde and stained with a 2% violet solution in 20% ethanol in water. Microscopic plaques were counted using a stereomicroscope. Drug effects were calculated as a percent reduction in the number of plaques in the presence of each drug concentration compared to the number observed in the absence of drug. Ganciclovir was used as a positive control in all experiments.

HCMV NO protease = molecular target: T1, HCMV NO protease (Human cytomegalovirus, UniProt P16753); experiment: HCMV NO Protease Assay (fluorogenic substrate cleavage); assay type: biochemical; conditions: HCMV NO protease 100 nM, substrate 5 μM, pH 8, 2.5 h at 30°
T1 construct: HCMV NO protease
Description: This particular assay determines the ability of a test compound to inhibit the activity (IC50) of HCMV protease. More specifically, in the assay described herein, the inhibitory activity of the test compound is evaluated on the basis of its ability to interfere with the HCMV NO protease cleavage of a fluorogenic peptide substrate which in turn is based on the maturation cleavage site of the enzyme.
1. HCMV NO Protease Assay
Material & Methods: Fluorescence measurements were recorded on a Perkin-Elmer LS-50B spectrofluorimeter equipped with a plate reader accessory. UV measurements were recorded on a Thermomax® microplate reader from Molecular Devices Corporation, Menlo Park, Calif., USA.
HCMV NO protease was assayed with an internally quenched fluorogenic substrate based on the maturation cleavage site (Abz-[…](3-NO2)R--OH, kcat /KM =260 M^-1 s^-1). The fluorescence increase upon cleavage of the Ala-Ser amide bond was monitored using excitation λ=312 nm (slit 2.5 nm) and emission λ=415 nm (slit 5 nm). A protocol adaptable to a 96-well plate format was designed for the determination of IC50 values of inhibitors.
After this period, enzymatic hydrolysis of the fluorogenic substrate in the absence of inhibitor led to about a 30% conversion. Quenching was not required before fluorescence measurement since the total scanning time by the plate reader accessory was brief relative to the duration of the reaction. The aqueous incubation buffer contained 50 mM tris(hydroxymethyl)aminomethane.HCl pH 8, 0.5M Na2 SO4, 50 mM NaCl, 0.1 mM EDTA, 1 mM tris(2-carboxyethyl)phosphine.HCl, 3% v/v DMSO and 0.05% w/v casein. The final concentrations of HCMV NO protease (expressed in terms of total monomer concentration) and substrate were 100 nM and 5 μM respectively. IC50 values were obtained through fitting of the inhibition curve to a competitive inhibition model using SAS NLIN procedure. The mode of inhibition was determined by measurements of the initial rates (in cuvettes) at various substrate concentrations in the buffer as described above. The IC50 values listed in the following tables were obtained according to this assay.

[2] = Cytotoxicity, tetrazolium salt (MTT) metabolic assay; assay type: cell-based; conditions: cytotoxic effects, read-out: TC50 (the source's name)
Description: Cytotoxic effects noted as TC50 in the following tables were determined according to the tetrazolium salt (MTT) metabolic assay, F. Denizot and F. Lang, J. Immun. Meth., 1986, 89, 271.

T1 sequence (P16753 1-256): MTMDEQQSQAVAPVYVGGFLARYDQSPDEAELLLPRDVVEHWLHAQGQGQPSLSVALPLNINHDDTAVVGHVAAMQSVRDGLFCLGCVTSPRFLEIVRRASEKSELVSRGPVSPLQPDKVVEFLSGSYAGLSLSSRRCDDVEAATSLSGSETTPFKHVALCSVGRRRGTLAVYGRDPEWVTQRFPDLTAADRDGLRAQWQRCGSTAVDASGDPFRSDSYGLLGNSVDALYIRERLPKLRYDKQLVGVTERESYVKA

Row | Compound | EC50 [1] [µM] | IC50 (HCMV NO protease) [µM] | CC50 [2] [µM]
1 | CC[C@@H](NC(=O)N1C(=O)C[C@@H]1COc1ccccn1)c1ccccc1 [Entry 101] | 55 | 8.4 | 151
2 | CC[C@@H](NC(=O)N1C(=O)[C@@H](C)[C@@H]1COc1ccccc1)c1ccccc1 [Entry 102] | > 250 | 2.7 | > 250
3 | CC[C@@H](NC(=O)N1C(=O)C[C@@H]1CSc1ccccn1)c1ccccc1 [Entry 103] | 150 | 4 | > 250
4 | CC[C@@H](NC(=O)N1C(=O)C[C@@H]1CSc1ncccn1)c1ccccc1 [Entry 104, 2-oxo-4(R)-(pyrimidin-2-ylsulfanylmethyl)azetidine-1-carboxylic acid (1(R)-phenylpropyl)amide] | 120 | 2.8 | > 209
5 | CC[C@@H](NC(=O)N1C(=O)C[C@@H]1CSc1nc(C)cc(C)n1)c1ccccc1 [Entry 105] | 88 | 4.6 | > 250
6 | CC[C@@H](NC(=O)N1C(=O)C[C@@H]1CSc1nc2ccccc2s1)c1ccccc1 [Entry 106] | > 250 | 3.3 | > 250
7 | CC[C@@H](NC(=O)N1C(=O)C[C@@H]1CSc1ccncc1)c1ccccc1 [Entry 107] | 92 | 2 | > 233
8 | CC[C@@H](NC(=O)N1C(=O)[C@@H](C)[C@@H]1CSc1ccccn1)c1ccccc1 [Entry 108] | 180 | 1.2 | > 250
9 | CC[C@@H](NC(=O)N1C(=O)[C@@H](C)[C@@H]1CSc1nc2ccccc2s1)c1ccccc1 [Entry 109] | 160 | 1.2 | > 250
10 | CC[C@@H](NC(=O)N1C(=O)[C@@H](C)[C@@H]1CSC(C)C)c1ccccc1 [Entry 110] | – | 5.6 | –
11 | CC[C@@H](NC(=O)N1C(=O)[C@@H](C)[C@@H]1CSc1ncccn1)c1ccccc1 [Entry 111] | 110 | 0.65 | > 250
12 | CC[C@@H](NC(=O)N1C(=O)[C@@H](C)[C@@H]1CSc1nc2ccccc2o1)c1ccccc1 [Entry 112] | 140 | 0.94 | > 250
13 | CC[C@@H](NC(=O)N1C(=O)[C@@H](C)[C@@H]1CSc1ccccc1)c1ccccc1 [Entry 113] | – | 1.6 | –
14 | CC[C@@H](NC(=O)N1C(=O)[C@@H](C)[C@@H]1CSC1CCCCC1)c1ccccc1 [Entry 114] | > 250 | 3 | > 250
15 | CC[C@@H](NC(=O)N1C(=O)[C@@H](C)[C@@H]1CSc1ccoc1C)c1ccccc1 [Entry 115] | 85 | 4.2 | > 250
16 | CC[C@@H](NC(=O)N1C(=O)[C@@H](C)[C@@H]1CSc1nccn1C)c1ccccc1 [Entry 116] | 130 | 1.9 | > 250
17 | CC[C@@H](NC(=O)N1C(=O)[C@@H](C)[C@@H]1CSCC(C)C)c1ccccc1 [Entry 117] | 110 | 3.5 | > 250
18 | CC[C@@H](NC(=O)N1C(=O)[C@@H](C)[C@@H]1CSc1ccncc1)c1ccccc1 [Entry 118] | 55 | 1.6 | 199
19 | CC[C@@H](NC(=O)N1C(=O)[C@@H](C)[C@@H]1CSc1nnnn1C)c1ccccc1 [Entry 119] | 80 | 1.4 | > 250
20 | CCSC[C@H]1[C@H](C)C(=O)N1C(=O)N[C@H](CC)c1ccccc1 [Entry 120] | – | 4 | –
21 | CC[C@@H](NC(=O)N1C(=O)[C@@H](C)[C@@H]1CSC1CCCC1)c1ccccc1 [Entry 121] | 150 | 4.3 | > 250
22 | CC[C@@H](NC(=O)N1C(=O)[C@@H](C)[C@@H]1CSc1ccc(OC)cc1)c1ccccc1 [Entry 122] | > 250 | 4.8 | > 250
23 | CC[C@@H](NC(=O)N1C(=O)[C@@H](C)[C@@H]1CSc1nccc(C)n1)c1ccccc1 [Entry 123] | 150 | 0.98 | > 250

Row | Compound | EC50 [1] [µM] | IC50 (HCMV NO protease) [µM] | CC50 [2] [µM]
24 | CC[C@@H](NC(=O)N1C(=O)C[C@@H]1CSc1nccc(C)n1)c1ccccc1 [Entry 124] | > 250 | 4 | > 250
25 | CC[C@@H](NC(=O)N1C(=O)[C@@H](C)[C@@H]1CSc1nc2ncccc2s1)c1ccccc1 [Entry 125] | 140 | 1.1 | > 250
26 | CC[C@@H](NC(=O)N1C(=O)[C@@H](C)[C@@H]1CSc1nc(C)cc(C)n1)c1ccccc1 [Entry 126] | 25 | 2.8 | > 63
27 | CC[C@@H](NC(=O)N1C(=O)C[C@@H]1CSC)c1ccccc1 [Entry 127, 4(R)-(methylsulfanyl)methyl-2-oxoazetidine-1-carboxylic acid (1(R)-phenylpropyl)amide] | > 250 | 3.8 | > 250
28 | CC[C@@H](NC(=O)N1C(=O)C[C@@H]1CSc1ccccc1)c1ccccc1 [Entry 129] | > 250 | 2.5 | > 250
29 | CC[C@@H](NC(=O)N1C(=O)C[C@@H]1COc1cccc(CCC(=O)O)c1)c1ccccc1 [Entry 135] | – | 0.1 | –
30 | CC[C@@H](NC(=O)N1C(=O)C[C@@H]1COc1cccc(CC(=O)O)c1)c1ccccc1 [Entry 136] | – | 0.1 | –
31 | O=C1C[C@H](C[S+]([O-])c2ccccc2)N1C(=O)NCc1ccccc1 (stereo partly drawn) [Entry 202, 4(R) -benzenesulfinylmethyl-2-oxoazetidine-1-carboxylic acid benzylamide] | – | 13 | –
32 | O=C1C[C@H](CS(=O)(=O)c2ccccc2)N1C(=O)NCc1ccccc1 [Entry 203, 2(R)-benzenesulfonylmethyl-4-oxoazetidine-1-carboxylic acid benzyl amide] | – | 24 | –
33 | CC[C@@H](NC(=O)N1C(=O)C[C@@H]1CN1CCOCC1)c1ccccc1 [Entry 205] | – | 9.4 | –
34 | CC(=O)OC[C@H]1CC(=O)N1C(=O)NCc1ccncc1 [Entry 207] | – | 46 | –
35 | CC[C@@H](NC(=O)N1C(=O)C[C@@H]1CN(CC)CC)c1ccccc1 [Entry 210] | – | 48 | –
36 | Cn1nnnc1SC[C@H]1CC(=O)N1C(=O)NC1CCc2ccccc21 (some centres unmarked) [Entry 211] | 140 | – | 188
37 | CN(Cc1ccco1)C(=O)N1C(=O)C[C@@H]1CSc1ncccn1 [Entry 303] | – | 17 | –
38 | CN(C(=O)N1C(=O)C[C@@H]1CSc1ncccn1)c1ccccc1 [Entry 306] | – | 22 | –
39 | COC(=O)c1ccc(CN(C)C(=O)N2C(=O)C[C@@H]2CSc2nccn2C)cc1 [Entry 308] | – | 22 | –
40 | COC(=O)c1ccc(CN(C)C(=O)N2C(=O)C[C@@H]2CSc2nc3ccccc3o2)cc1 [Entry 310] | – | 3.3 | –
41 | CN(CC1CCCCO1)C(=O)N1C(=O)C[C@@H]1CSc1ncccn1 (some centres unmarked) [Entry 315] | – | 28 | –
42 | CN(Cc1ccc([N+](=O)[O-])cc1)C(=O)N1C(=O)C[C@@H]1CSc1ncccn1 [Entry 322] | > 118 | – | > 118
43 | O=C(OCc1ccccc1)C1CCCN1C(=O)N1C(=O)C[C@@H]1CSc1ncccn1 (some centres unmarked) [Entry 401] | – | 21 | –
44 | O=C1C[C@H](CSc2ncccn2)N1C(=O)N1CCC[C@H]1c1ccccc1 [Entry 402, 1-(2(S)-phenyl-pyrrolidine-1-carbonyl)-4-(pyrimidin-2-ylsulfanylmethyl)azetidin-2-one] | – | 34 | –
45 | Cn1nnnc1SC[C@H]1CC(=O)N1C(=O)N1CCCC1c1ccccc1[N+](=O)[O-] (some centres unmarked) [Entry 408] | 100 | – | > 133
